Read-outs that look alike come from different tables or passages of the source.
Tested on: whitefly Bemisia tabaci adults
Test: Foliar use field trial on tomato, efficacy on whitefly adults
Format: in vivo
Conditions: Bemisia tabaci, foliar
Protocol: Two studies were carried out in Elhasanya, Egypt in 2009 on tomato plants of the variety Fayrouz with the main goal to measure efficacy on the whitefly Bemisia tabaci. The plot size was 4.8 m^2 and 6 replicates were used in the trial. Products were applied 3 times on young tomato plants at BBCH stages 14, 17 and 51 at spray intervals between 12 and 19 days. The spray volume was at the first application 350 l/ha and later 500 l/ha. The evaluation of this study was done counting the adult whiteflies (Bemisia tabaci) as well as the nymphs and the eggs in each plot. In addition to the direct whitefly effect, visual symptoms of the virus, mainly TYLCV (tomato yellow leaf curl virus) were evaluated also.
ASM=Acibenzolar-S-methyl. WG 50=Actigard® 50WG, a water-dispersible granule with the active ingredient ASM CYNT=Cyantraniliprole. WG 40=Cyazypyr®, a water dispersable granule with the active ingredient CYNT. Results on whitefly adults. Trial 1

Q: For CSC(=O)c1cccc2nnsc12 [ASM, S-methyl benzo[1,2,3]thiadiazole-7-carbothioate], which Emax (12.5 g ai/hl, 5DAA1, Trial 1, read-out: % Efficacy on Adults) is on record?
A: 53%

Q: And the Emax (12.5 g ai/hl, 5DAA1, Trial 2, read-out: % Efficacy on Adults)?
A: 53%

Q: And the Emax (12.5 g ai/hl, 5DAA2, Trial 1, read-out: % Efficacy on Adults)?
A: 45%

Q: What about the Emax (12.5 g ai/hl, 5DAA2, Trial 2, read-out: % Efficacy on Adults) of the same compound?
A: 45%

Q: And the Emax (12.5 g ai/hl, 5DAA3, Trial 1, read-out: % Efficacy on Adults)?
A: 55%

Q: And the Emax (12.5 g ai/hl, 5DAA3, Trial 2, read-out: % Efficacy on Adults)?
A: 55%

Q: What about the Emax (12.5 g ai/hl, 10DAA1, Trial 1, read-out: % Efficacy on Adults) of the same compound?
A: 43%

Q: And the Emax (12.5 g ai/hl, 10DAA1, Trial 2, read-out: % Efficacy on Adults)?
A: 43%

Q: What about the Emax (12.5 g ai/hl, 10DAA2, Trial 1, read-out: % Efficacy on Adults) of the same compound?
A: 37%

Q: What about the Emax (12.5 g ai/hl, 10DAA2, Trial 2, read-out: % Efficacy on Adults) of the same compound?
A: 37%

Q: And the Emax (12.5 g ai/hl, 10DAA3, Trial 1, read-out: % Efficacy on Adults)?
A: 46%

Q: And the Emax (12.5 g ai/hl, 10DAA3, Trial 2, read-out: % Efficacy on Adults)?
A: 46%

Q: And the Emax (12.5 g ai/hl, 15DAA3, Trial 1, read-out: % Efficacy on Adults)?
A: 38%

Q: And the Emax (12.5 g ai/hl, 15DAA3, Trial 2, read-out: % Efficacy on Adults)?
A: 38%

Q: What about the Emax (12.5 g ai/hl, 20DAA3, Trial 1, read-out: % Efficacy on Adults) of the same compound?
A: 12%

Q: What about the Emax (12.5 g ai/hl, 20DAA3, Trial 2, read-out: % Efficacy on Adults) of the same compound?
A: 12%

Q: What about the Emax (12.5 g ai/hl, Avg, Trial 1, read-out: % Efficacy on Adults Avg % C) of the same compound?
A: 41%

Q: And the Emax (25 g ai/hl, 5DAA1, Trial 1, read-out: % Efficacy on Adults)?
A: 59%

Q: What about the Emax (25 g ai/hl, 5DAA1, Trial 2, read-out: % Efficacy on Adults) of the same compound?
A: 59%

Q: And the Emax (25 g ai/hl, 5DAA2, Trial 1, read-out: % Efficacy on Adults)?
A: 52%

Q: What about the Emax (25 g ai/hl, 5DAA2, Trial 2, read-out: % Efficacy on Adults) of the same compound?
A: 52%

Q: And the Emax (25 g ai/hl, 5DAA3, Trial 1, read-out: % Efficacy on Adults)?
A: 57%

Q: And the Emax (25 g ai/hl, 5DAA3, Trial 2, read-out: % Efficacy on Adults)?
A: 57%

Q: And the Emax (25 g ai/hl, 10DAA1, Trial 1, read-out: % Efficacy on Adults)?
A: 43%

Q: And the Emax (25 g ai/hl, 10DAA1, Trial 2, read-out: % Efficacy on Adults)?
A: 43%

Q: And the Emax (25 g ai/hl, 10DAA2, Trial 1, read-out: % Efficacy on Adults)?
A: 39%

Q: And the Emax (25 g ai/hl, 10DAA2, Trial 2, read-out: % Efficacy on Adults)?
A: 39%

Q: What about the Emax (25 g ai/hl, 10DAA3, Trial 1, read-out: % Efficacy on Adults) of the same compound?
A: 49%

Q: And the Emax (25 g ai/hl, 10DAA3, Trial 2, read-out: % Efficacy on Adults)?
A: 49%

Q: What about the Emax (25 g ai/hl, 15DAA3, Trial 1, read-out: % Efficacy on Adults) of the same compound?
A: 40%

Q: What about the Emax (25 g ai/hl, 15DAA3, Trial 2, read-out: % Efficacy on Adults) of the same compound?
A: 40%

Q: What about the Emax (25 g ai/hl, 20DAA3, Trial 1, read-out: % Efficacy on Adults) of the same compound?
A: 22%

Q: What about the Emax (25 g ai/hl, 20DAA3, Trial 2, read-out: % Efficacy on Adults) of the same compound?
A: 22%

Q: What about the Emax (25 g ai/hl, Avg, Trial 1, read-out: % Efficacy on Adults Avg % C) of the same compound?
A: 45%

Q: What does the source list for CNC(=O)c1cc(C#N)cc(C)c1NC(=O)c1cc(Br)nn1-c1ncccc1Cl [CYNT, 3-bromo-1-(3-chloro-2-pyridyl)-4′-cyano-2′-methyl-6′-(methylcarbamoyl)pyrazole-5-carboxanilide]?
A: Emax (75 g ai/hl, 5DAA1, Trial 1, read-out: % Efficacy on Adults): 82%; Emax (75 g ai/hl, 5DAA1, Trial 2, read-out: % Efficacy on Adults): 82%; Emax (75 g ai/hl, 5DAA2, Trial 1, read-out: % Efficacy on Adults): 69%; Emax (75 g ai/hl, 5DAA2, Trial 2, read-out: % Efficacy on Adults): 69%; Emax (75 g ai/hl, 5DAA3, Trial 1, read-out: % Efficacy on Adults): 83%; Emax (75 g ai/hl, 5DAA3, Trial 2, read-out: % Efficacy on Adults): 83%; Emax (75 g ai/hl, 10DAA1, Trial 1, read-out: % Efficacy on Adults): 49%; Emax (75 g ai/hl, 10DAA1, Trial 2, read-out: % Efficacy on Adults): 49%; Emax (75 g ai/hl, 10DAA2, Trial 1, read-out: % Efficacy on Adults): 67%; Emax (75 g ai/hl, 10DAA2, Trial 2, read-out: % Efficacy on Adults): 67%; Emax (75 g ai/hl, 10DAA3, Trial 1, read-out: % Efficacy on Adults): 79%; Emax (75 g ai/hl, 10DAA3, Trial 2, read-out: % Efficacy on Adults): 79%; Emax (75 g ai/hl, 15DAA3, Trial 1, read-out: % Efficacy on Adults): 71%; Emax (75 g ai/hl, 15DAA3, Trial 2, read-out: % Efficacy on Adults): 71%; Emax (75 g ai/hl, 20DAA3, Trial 1, read-out: % Efficacy on Adults): 62%; Emax (75 g ai/hl, 20DAA3, Trial 2, read-out: % Efficacy on Adults): 62%; Emax (75 g ai/hl, Avg, Trial 1, read-out: % Efficacy on Adults Avg % C): 70%; Emax (100 g ai/hl, 5DAA1, Trial 1, read-out: % Efficacy on Adults): 89%; Emax (100 g ai/hl, 5DAA1, Trial 2, read-out: % Efficacy on Adults): 89%; Emax (100 g ai/hl, 5DAA2, Trial 1, read-out: % Efficacy on Adults): 89%; Emax (100 g ai/hl, 5DAA2, Trial 2, read-out: % Efficacy on Adults): 89%; Emax (100 g ai/hl, 5DAA3, Trial 1, read-out: % Efficacy on Adults): 90%; Emax (100 g ai/hl, 5DAA3, Trial 2, read-out: % Efficacy on Adults): 90%; Emax (100 g ai/hl, 10DAA1, Trial 1, read-out: % Efficacy on Adults): 74%; Emax (100 g ai/hl, 10DAA1, Trial 2, read-out: % Efficacy on Adults): 74%; Emax (100 g ai/hl, 10DAA2, Trial 1, read-out: % Efficacy on Adults): 86%; Emax (100 g ai/hl, 10DAA2, Trial 2, read-out: % Efficacy on Adults): 86%; Emax (100 g ai/hl, 10DAA3, Trial 1, read-out: % Efficacy on Adults): 86%; Emax (100 g ai/hl, 10DAA3, Trial 2, read-out: % Efficacy on Adults): 86%; Emax (100 g ai/hl, 15DAA3, Trial 1, read-out: % Efficacy on Adults): 80%; Emax (100 g ai/hl, 15DAA3, Trial 2, read-out: % Efficacy on Adults): 80%; Emax (100 g ai/hl, 20DAA3, Trial 1, read-out: % Efficacy on Adults): 68%; Emax (100 g ai/hl, 20DAA3, Trial 2, read-out: % Efficacy on Adults): 68%; Emax (100 g ai/hl, Avg, Trial 1, read-out: % Efficacy on Adults Avg % C): 83%
